From PubChem BioAssay (NCI)
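Protocol summary: plate cells (96-well), add compound at 5 concentrations, incubate 48 h, interpolate endpoints linearly. GI50 = concentration required for 50% inhibition of growth. TGI: concentration producing complete growth inhibition.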

Key:
Assay in all cases: inhibition of tumour cell growth, NCI panel, 48 h
SK-MEL-2 melanoma = test system: SK-MEL-2 melanoma
NCI-H522 lung = test system: NCI-H522 lung
U251 CNS = test system: U251 CNS
HL-60(TB) leukemia = test system: HL-60(TB) leukemia
HCC-2998 colon = test system: HCC-2998 colon
CAKI-1 renal = test system: CAKI-1 renal
NCI/ADR-RES ovarian = test system: NCI/ADR-RES ovarian
HS 578T breast = test system: HS 578T breast
SF-295 CNS = test system: SF-295 CNS
OVCAR-4 ovarian = test system: OVCAR-4 ovarian
SK-MEL-5 melanoma = test system: SK-MEL-5 melanoma
OVCAR-3 ovarian = test system: OVCAR-3 ovarian
NCI-H226 lung = test system: NCI-H226 lung
MCF7 breast = test system: MCF7 breast
SNB-19 CNS = test system: SNB-19 CNS
SF-268 CNS = test system: SF-268 CNS
RXF 393 renal = test system: RXF 393 renal
HT29 colon = test system: HT29 colon
SN12C renal = test system: SN12C renal
DU-145 prostate = test system: DU-145 prostate
EKVX NSCLC = test system: EKVX NSCLC
NCI-H460 lung = test system: NCI-H460 lung
M14 melanoma = test system: M14 melanoma
MDA-MB-435 = test system: MDA-MB-435
TK-10 renal = test system: TK-10 renal
LOX IMVI melanoma = test system: LOX IMVI melanoma
UACC-62 melanoma = test system: UACC-62 melanoma
HOP-92 NSCLC = test system: HOP-92 NSCLC
SW-620 colon = test system: SW-620 colon
CCRF-CEM leukemia = test system: CCRF-CEM leukemia
MOLT-4 leukemia = test system: MOLT-4 leukemia
COLO 205 colon = test system: COLO 205 colon
KM12 colon = test system: KM12 colon
A549 NSCLC = test system: A549 NSCLC
OVCAR-8 ovarian = test system: OVCAR-8 ovarian
ACHN renal = test system: ACHN renal
IGROV1 ovarian = test system: IGROV1 ovarian
SR leukemia = test system: SR leukemia
T-47D breast = test system: T-47D breast
HCT-116 colon = test system: HCT-116 colon
MDA-MB-231 breast = test system: MDA-MB-231 breast
SK-MEL-28 melanoma = test system: SK-MEL-28 melanoma
SNB-75 CNS = test system: SNB-75 CNS
UO-31 renal = test system: UO-31 renal
UACC-257 melanoma = test system: UACC-257 melanoma
MALME-3M melanoma = test system: MALME-3M melanoma
HCT-15 colon = test system: HCT-15 colon
A498 renal = test system: A498 renal
786-0 renal = test system: 786-0 renal
K-562 leukemia = test system: K-562 leukemia
RPMI-8226 leukemia = test system: RPMI-8226 leukemia
NCI-H23 lung = test system: NCI-H23 lung
HOP-62 NSCLC = test system: HOP-62 NSCLC
SF-539 CNS = test system: SF-539 CNS
PC-3 prostate = test system: PC-3 prostate
OVCAR-5 ovarian = test system: OVCAR-5 ovarian
BT-549 breast = test system: BT-549 breast
SK-OV-3 ovarian = test system: SK-OV-3 ovarian

CC(CN1CCN(C)CC1)CN1c2ccccc2Sc2ccc(C(F)(F)F)cc21 (stereo not drawn)
GI50 (SK-MEL-2 melanoma): 2090 nM
TGI (SK-MEL-2 melanoma): 3740 nM
GI50 (NCI-H522 lung): 1790 nM
TGI (NCI-H522 lung): 3370 nM
GI50 (U251 CNS): 1680 nM
TGI (U251 CNS): 3120 nM
GI50 (HL-60(TB) leukemia): 1920 nM
TGI (HL-60(TB) leukemia): 4100 nM
GI50 (HCC-2998 colon): 1630 nM
TGI (HCC-2998 colon): 3070 nM
GI50 (CAKI-1 renal): 2600 nM
TGI (CAKI-1 renal): 11000 nM
GI50 (NCI/ADR-RES ovarian): 1940 nM
TGI (NCI/ADR-RES ovarian): 4940 nM
GI50 (HS 578T breast): 1880 nM
TGI (HS 578T breast): 5800 nM
GI50 (SF-295 CNS): 1970 nM
TGI (SF-295 CNS): 4310 nM
GI50 (OVCAR-4 ovarian): 2160 nM
TGI (OVCAR-4 ovarian): 4400 nM
GI50 (SK-MEL-5 melanoma): 1610 nM
TGI (SK-MEL-5 melanoma): 2990 nM
GI50 (OVCAR-3 ovarian): 2040 nM
TGI (OVCAR-3 ovarian): 4160 nM
GI50 (NCI-H226 lung): 2600 nM
TGI (NCI-H226 lung): 8510 nM
GI50 (MCF7 breast): 1640 nM
TGI (MCF7 breast): 3160 nM
GI50 (SNB-19 CNS): 2080 nM
TGI (SNB-19 CNS): 4320 nM
GI50 (SF-268 CNS): 3100 nM
TGI (SF-268 CNS): 9290 nM
GI50 (RXF 393 renal): 1640 nM
TGI (RXF 393 renal): 3030 nM
GI50 (HT29 colon): 1800 nM
TGI (HT29 colon): 3270 nM
GI50 (SN12C renal): 4070 nM
TGI (SN12C renal): 14500 nM
GI50 (DU-145 prostate): 2800 nM
TGI (DU-145 prostate): 6990 nM
GI50 (EKVX NSCLC): 2100 nM
TGI (EKVX NSCLC): 5380 nM
GI50 (NCI-H460 lung): 1930 nM
TGI (NCI-H460 lung): 3840 nM
GI50 (M14 melanoma): 1750 nM
TGI (M14 melanoma): 3250 nM
GI50 (MDA-MB-435): 1800 nM
TGI (MDA-MB-435): 3600 nM
GI50 (TK-10 renal): 1850 nM
TGI (TK-10 renal): 3300 nM
GI50 (LOX IMVI melanoma): 1680 nM
TGI (LOX IMVI melanoma): 3250 nM
GI50 (UACC-62 melanoma): 2090 nM
TGI (UACC-62 melanoma): 4180 nM
GI50 (HOP-92 NSCLC): 1250 nM
TGI (HOP-92 NSCLC): 4380 nM
GI50 (SW-620 colon): 1830 nM
TGI (SW-620 colon): 3670 nM
GI50 (CCRF-CEM leukemia): 2600 nM
TGI (CCRF-CEM leukemia): 6740 nM
GI50 (MOLT-4 leukemia): 2050 nM
TGI (MOLT-4 leukemia): 4770 nM
GI50 (COLO 205 colon): 1890 nM
TGI (COLO 205 colon): 3650 nM
GI50 (KM12 colon): 1950 nM
TGI (KM12 colon): 3520 nM
GI50 (A549 NSCLC): 1850 nM
TGI (A549 NSCLC): 3490 nM
GI50 (OVCAR-8 ovarian): 1760 nM
TGI (OVCAR-8 ovarian): 3340 nM
GI50 (ACHN renal): 1670 nM
TGI (ACHN renal): 3270 nM
GI50 (IGROV1 ovarian): 2770 nM
TGI (IGROV1 ovarian): 10200 nM
GI50 (SR leukemia): 2010 nM
TGI (SR leukemia): 5320 nM
GI50 (T-47D breast): 1890 nM
TGI (T-47D breast): 4550 nM
GI50 (HCT-116 colon): 1680 nM
TGI (HCT-116 colon): 3070 nM
GI50 (MDA-MB-231 breast): 1360 nM
TGI (MDA-MB-231 breast): 2820 nM
GI50 (SK-MEL-28 melanoma): 1910 nM
TGI (SK-MEL-28 melanoma): 3420 nM
GI50 (SNB-75 CNS): 2210 nM
TGI (SNB-75 CNS): 7850 nM
GI50 (UO-31 renal): 1800 nM
TGI (UO-31 renal): 6400 nM
GI50 (UACC-257 melanoma): 1890 nM
TGI (UACC-257 melanoma): 3810 nM
GI50 (MALME-3M melanoma): 1720 nM
TGI (MALME-3M melanoma): 3720 nM
GI50 (HCT-15 colon): 1810 nM
TGI (HCT-15 colon): 3950 nM
GI50 (A498 renal): 2980 nM
TGI (A498 renal): 15200 nM
GI50 (786-0 renal): 1660 nM
TGI (786-0 renal): 3120 nM
GI50 (K-562 leukemia): 1760 nM
TGI (K-562 leukemia): 4210 nM
GI50 (RPMI-8226 leukemia): 2430 nM
TGI (RPMI-8226 leukemia): 5490 nM
GI50 (NCI-H23 lung): 1830 nM
TGI (NCI-H23 lung): 4050 nM
GI50 (HOP-62 NSCLC): 1710 nM
TGI (HOP-62 NSCLC): 3170 nM
GI50 (SF-539 CNS): 1670 nM
TGI (SF-539 CNS): 3590 nM
GI50 (PC-3 prostate): 2090 nM
TGI (PC-3 prostate): 5210 nM
GI50 (OVCAR-5 ovarian): 1530 nM
TGI (OVCAR-5 ovarian): 3130 nM

O=C1CC(c2ccc3c(c2)OCO3)Nc2cc3c(cc21)OCO3 (stereo not drawn)
GI50 (SK-MEL-2 melanoma): 747 nM
TGI (SK-MEL-2 melanoma): > 100000 nM
GI50 (NCI-H522 lung): 551 nM
TGI (NCI-H522 lung): 16800 nM
GI50 (U251 CNS): 544 nM
TGI (U251 CNS): > 100000 nM
GI50 (HL-60(TB) leukemia): 252 nM
TGI (HL-60(TB) leukemia): 637 nM
GI50 (HCC-2998 colon): 694 nM
TGI (HCC-2998 colon): 11000 nM
GI50 (CAKI-1 renal): 527 nM
TGI (CAKI-1 renal): > 100000 nM
GI50 (BT-549 breast): 3240 nM
TGI (BT-549 breast): > 100000 nM
GI50 (NCI/ADR-RES ovarian): 372 nM
TGI (NCI/ADR-RES ovarian): 83400 nM
GI50 (HS 578T breast): 512 nM
TGI (HS 578T breast): 93600 nM
GI50 (SF-295 CNS): 348 nM
TGI (SF-295 CNS): 6810 nM
GI50 (OVCAR-4 ovarian): 1040 nM
TGI (OVCAR-4 ovarian): > 100000 nM
GI50 (SK-MEL-5 melanoma): 364 nM
TGI (SK-MEL-5 melanoma): 1940 nM
GI50 (OVCAR-3 ovarian): 344 nM
TGI (OVCAR-3 ovarian): 1450 nM
GI50 (NCI-H226 lung): 13900 nM
TGI (NCI-H226 lung): > 100000 nM
GI50 (MCF7 breast): 364 nM
TGI (MCF7 breast): > 100000 nM
GI50 (SNB-19 CNS): 687 nM
TGI (SNB-19 CNS): > 100000 nM
GI50 (SF-268 CNS): 830 nM
TGI (SF-268 CNS): > 100000 nM
GI50 (RXF 393 renal): 343 nM
TGI (RXF 393 renal): 4440 nM
GI50 (HT29 colon): 374 nM
TGI (HT29 colon): 22300 nM
GI50 (SN12C renal): 788 nM
TGI (SN12C renal): > 100000 nM
GI50 (DU-145 prostate): 405 nM
TGI (DU-145 prostate): 14700 nM
GI50 (EKVX NSCLC): 1930 nM
TGI (EKVX NSCLC): 72600 nM
GI50 (NCI-H460 lung): 353 nM
TGI (NCI-H460 lung): 13000 nM
GI50 (SK-OV-3 ovarian): 485 nM
TGI (SK-OV-3 ovarian): 44200 nM
GI50 (TK-10 renal): 2770 nM
TGI (TK-10 renal): > 100000 nM
GI50 (LOX IMVI melanoma): 467 nM
TGI (LOX IMVI melanoma): 15300 nM
GI50 (UACC-62 melanoma): 673 nM
TGI (UACC-62 melanoma): > 100000 nM
GI50 (SW-620 colon): 357 nM
TGI (SW-620 colon): > 100000 nM
GI50 (CCRF-CEM leukemia): 363 nM
TGI (CCRF-CEM leukemia): > 100000 nM
GI50 (MOLT-4 leukemia): 560 nM
TGI (MOLT-4 leukemia): > 100000 nM
GI50 (COLO 205 colon): 282 nM
TGI (COLO 205 colon): 885 nM
GI50 (KM12 colon): 398 nM
TGI (KM12 colon): 17300 nM
GI50 (A549 NSCLC): 600 nM
TGI (A549 NSCLC): > 100000 nM
GI50 (OVCAR-8 ovarian): 840 nM
TGI (OVCAR-8 ovarian): > 100000 nM
GI50 (ACHN renal): 2050 nM
TGI (ACHN renal): > 100000 nM
GI50 (SR leukemia): 266 nM
TGI (SR leukemia): 12400 nM
GI50 (HCT-116 colon): 1270 nM
TGI (HCT-116 colon): > 100000 nM
GI50 (UO-31 renal): 767 nM
TGI (UO-31 renal): > 100000 nM
GI50 (UACC-257 melanoma): 21300 nM
TGI (UACC-257 melanoma): 83000 nM
GI50 (HCT-15 colon): 432 nM
TGI (HCT-15 colon): > 100000 nM
GI50 (A498 renal): 169 nM
TGI (A498 renal): 862 nM
GI50 (786-0 renal): 778 nM
TGI (786-0 renal): 36300 nM
GI50 (K-562 leukemia): 358 nM
TGI (K-562 leukemia): > 100000 nM
GI50 (NCI-H23 lung): 479 nM
TGI (NCI-H23 lung): > 100000 nM
GI50 (HOP-62 NSCLC): 523 nM
TGI (HOP-62 NSCLC): > 100000 nM
GI50 (SF-539 CNS): 301 nM
TGI (SF-539 CNS): 1200 nM
GI50 (PC-3 prostate): 464 nM
TGI (PC-3 prostate): > 100000 nM
GI50 (OVCAR-5 ovarian): 2300 nM
TGI (OVCAR-5 ovarian): > 100000 nM
